{"source": "patent US20130183384A1", "about": "“IMMEDIATE RELEASE MULTI UNIT PELLET SYSTEM” (BOEHRINGER INGELHEIM INTERNATIONAL GMBH, priority 2011, published 2013)", "experiment": "Sensitivity of the drug substance to hydrolysis", "format": "physicochemical", "details": "especially at low pH", "excerpt": "Any formulation containing both organic acid as well as drug substance in close contact is therefore at a very high risk to decomposition, particularly in the presence of humidity. Therefore e.g. tartaric acid and active ingredient are kept separate in the formulation until the moment of application. A multiparticulate pellet approach is chosen. The drug substance is layered from an isopropanolic suspension onto seal coated spherical tartaric acid starter cores with approximately 0.6-0.8 mm diameter (FIG. 3 Structure of dabigatran etexilate pellets'.", "data": [{"smiles": "CCCCCCOC(=O)N=C(N)c1ccc(NCc2nc3cc(C(=O)N(CCC(=O)OCC)c4ccccn4)ccc3n2C)cc1", "note": "[Dabigatran etexilate mesilate, dabigatran etexilate methansulfonate]", "values": [{"measurement": "sensitivity to hydrolysis", "result": "sensitive to hydrolysis especially at low pH"}]}]}
